# Patent publication US20220340875A1, “METHODS OF CULTURING AND/OR EXPANDING STEM CELLS AND/OR LINEAGE COMMITTED PROGENITOR CELLS USING AMIDO COMPOUNDS” (IDEAYA BIOSCIENCES, INC., priority 2018, published 2022)
# Biological target: T1, hAhR (Homo sapiens, UniProt P35869)
# T1 construct: Stably integrated DRE-luciferase cell lines were generated by transducing the both cell lines with Cignal XRE luciferase reporter (Qiagen) lentiviral particles; endogenous in cells
# T1 sequence (P35869 11-848): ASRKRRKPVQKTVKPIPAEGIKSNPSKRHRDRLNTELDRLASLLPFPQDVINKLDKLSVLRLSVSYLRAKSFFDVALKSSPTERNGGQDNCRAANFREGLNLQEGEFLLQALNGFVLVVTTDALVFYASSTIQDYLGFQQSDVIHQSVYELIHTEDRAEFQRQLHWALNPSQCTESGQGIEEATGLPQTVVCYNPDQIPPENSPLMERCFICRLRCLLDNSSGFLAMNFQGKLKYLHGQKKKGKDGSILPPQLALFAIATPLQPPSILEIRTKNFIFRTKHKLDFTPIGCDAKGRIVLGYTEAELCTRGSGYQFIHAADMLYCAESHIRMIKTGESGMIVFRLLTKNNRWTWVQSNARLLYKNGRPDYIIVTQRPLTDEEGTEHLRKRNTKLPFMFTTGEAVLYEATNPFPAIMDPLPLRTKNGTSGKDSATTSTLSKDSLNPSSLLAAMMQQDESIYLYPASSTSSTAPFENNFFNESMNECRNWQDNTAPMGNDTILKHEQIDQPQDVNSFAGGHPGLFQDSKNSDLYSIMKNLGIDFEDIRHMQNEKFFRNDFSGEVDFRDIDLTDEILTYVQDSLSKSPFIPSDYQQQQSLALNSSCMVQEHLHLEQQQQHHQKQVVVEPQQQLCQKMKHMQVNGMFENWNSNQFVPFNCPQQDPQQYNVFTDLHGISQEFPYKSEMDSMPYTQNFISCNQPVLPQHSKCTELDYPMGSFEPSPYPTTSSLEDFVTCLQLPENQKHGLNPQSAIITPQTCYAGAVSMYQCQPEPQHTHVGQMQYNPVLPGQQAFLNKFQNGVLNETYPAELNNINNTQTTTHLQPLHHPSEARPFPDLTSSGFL
# Assay: AhR DRE-luciferase reporter transcriptional assay, antagonist mode (TCDD-induced)
# Type: cell-based
# Details: HEPG2 DRE-Luc cells, 3 nM TCDD, 24 hour incubation, relative IC50
# Procedure, shortened: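 HepG2 cells carrying a stably integrated DRE-luciferase reporter, in OptiMEM with 0.5% FBS; semi-log compound doses added with 3 nM TCDD, 24 h incubation, firefly luciferase read-out. Percent maximal activity normalised between vehicle ± TCDD; relative IC50 taken as half-reduction between curve plateaus.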
row,SMILES,IC50
1,"Cn1nccc1C(=O)Nc1ccc(-c2ccc3cc(F)ccc3n2)cc1OC(F)(F)F [Example 047, N-(4-(6-fluoroquinolin-2-yl)-2-(trifluoromethoxy)phenyl)-1-methyl-1H-pyrazole-5-carboxamide]",1000 to 10000 nM
2,"Cn1nccc1C(=O)Nc1ccc(-c2ccc3cc(C(F)(F)F)ccc3n2)cc1F [Example 077, N-(2-fluoro-4-(6-(trifluoromethyl)quinolin-2-yl)phenyl)-1-methyl-1H-pyrazole-5-carboxamide]",200 to 500 nM
3,"Cc1cc(-c2ccc3ccc(F)cc3n2)ccc1NC(=O)c1ccnn1C [Example 019, N-(4-(7-fluoroquinolin-2-yl)-2-methylphenyl)-1-methyl-1H-pyrazole-5-carboxamide]",200 to 500 nM
4,"Cc1cc(-c2ncc3nc(C(F)(F)F)cc(C)c3n2)ccc1NC(=O)c1ccnn1C [Example 147, 1-methyl-N-(2-methyl-4-(8-methyl-6-(trifluoromethyl)pyrido[3,2-d]pyrimidin-2-yl)phenyl)-1H-pyrazole-5-carboxamide]",< 200 nM
5,"Cc1cc(-c2ccc3ccc(C(F)(F)F)cc3n2)ccc1NC(=O)c1ccnn1C [Example 078, 1-methyl-N-(2-methyl-4-(7-(trifluoromethyl)quinolin-2-yl)phenyl)-1H-pyrazole-5-carboxamide]",200 to 500 nM
6,"Cc1c(-c2ccc3cc(C(F)(F)F)ccc3n2)ccc(NC(=O)c2ccnn2C)c1F [Example 005, N-(2-fluoro-3-methyl-4-(6-(trifluoromethyl)quinolin-2-yl)phenyl)-1-methyl-1H-pyrazole-5-carboxamide]",1000 to 10000 nM
7,"Cc1cc(-c2ccc3cc(F)cc(C(F)(F)F)c3n2)ccc1NC(=O)c1ccnn1C [Example 058, N-(4-(6-fluoro-8-(trifluoromethyl)quinolin-2-yl)-2-methylphenyl)-1-methyl-1H-pyrazole-5-carboxamide]",200 to 500 nM
8,"Cc1cc(-c2ccc3cc(F)ccc3n2)ccc1NC(=O)c1cccnc1 [Example 027, N-(4-(6-fluoroquinolin-2-yl)-2-methylphenyl)nicotinamide]",500 to 1000 nM
9,"Cc1cc(-c2ccc3nc(C(F)(F)F)cc(C)c3n2)ccc1NC(=O)c1ccnn1C [Example 105, 1-methyl-N-(2-methyl-4-(8-methyl-6-(trifluoromethyl)-1,5-naphthyridin-2-yl)phenyl)-1H-pyrazole-5-carboxamide]",< 200 nM
10,"CNC(=O)N(C)c1ccc(-c2ncc3cc(C(F)(F)F)ccc3n2)cc1C [Example 127, 1,3-dimethyl-1-(2-methyl-4-(6-(trifluoromethyl)quinazolin-2-yl)phenyl)urea]",< 200 nM
11,"Cc1cc(-c2ncc3cc(C(F)(F)F)cc(C)c3n2)ccc1NC(=O)c1ccnn1C [Example 110, 1-methyl-N-(2-methyl-4-(8-methyl-6-(trifluoromethyl)quinazolin-2-yl)phenyl)-1H-pyrazole-5-carboxamide]",< 200 nM
12,"Cc1nc(NC(=O)c2ccnn2C)ccc1-c1ccc2cc(F)ccc2n1 [Example 044, N-(5-(6-fluoroquinolin-2-yl)-6-methylpyridin-2-yl)-1-methyl-1H-pyrazole-5-carboxamide]",1000 to 10000 nM
13,"Cc1cc(-c2ccc3cc(F)ccc3n2)c(F)cc1NC(=O)c1ccnn1C [Example 067, N-(5-fluoro-4-(6-fluoroquinolin-2-yl)-2-methylphenyl)-1-methyl-1H-pyrazole-5-carboxamide]",500 to 1000 nM
14,"Cc1ccc2nc(-c3ccc(NC(=O)c4ccnn4C)c(C)c3)ccc2c1 [Example 079, 1-methyl-N-(2-methyl-4-(6-methylquinolin-2-yl)phenyl)-1H-pyrazole-5-carboxamide]",500 to 1000 nM
15,"Cc1cc(-c2ccc3cc(C#N)ccc3n2)ccc1NC(=O)c1ccnn1C [Example 073, N-(4-(6-cyanoquinolin-2-yl)-2-methylphenyl)-1-methyl-1H-pyrazole-5-carboxamide]",< 200 nM
16,"Cc1cc(-c2ccc3cc(Br)ccc3n2)ccc1NC(=O)c1ccnn1C [Example 064, N-(4-(6-bromoquinolin-2-yl)-2-methylphenyl)-1-methyl-1H-pyrazole-5-carboxamide]",200 to 500 nM
17,"Cc1cc(-c2ccc3nncc(C)c3c2)ccc1NC(=O)c1ccnn1C [Example 062, 1-methyl-N-(2-methyl-4-(4-methylcinnolin-6-yl)phenyl)-1H-pyrazole-5-carboxamide]",1000 to 10000 nM
18,"Cc1cc(-c2ncc3cc(F)cc(C)c3n2)ccc1NC(=O)c1ccnn1C [Example 109, N-(4-(6-fluoro-8-methylquinazolin-2-yl)-2-methylphenyl)-1-methyl-1H-pyrazole-5-carboxamide]",< 200 nM
19,"Cc1cc(-c2ncc3cc(C(F)(F)F)ccc3n2)ccc1N(C)C(=O)c1ncn[nH]1 [Example 134, N-methyl-N-(2-methyl-4-(6-(trifluoromethyl)quinazolin-2-yl)phenyl)-1H-1,2,4-triazole-5-carboxamide]",200 to 500 nM

# Continued, values first:
row,IC50,SMILES
1,< 200 nM,"Cc1cc(-c2ncc3nc(C(F)(F)F)cc(C)c3n2)ccc1N(C)C(=O)c1ccnn1CCN1CCCC1 [Example 182, N-methyl-N-(2-methyl-4-(8-methyl-6-(trifluoromethyl)pyrido[3,2-d]pyrimidin-2-yl)phenyl)-1-(2-(pyrrolidin-1-yl)ethyl)-1H-pyrazole-5-carboxamide]"
2,< 200 nM,"Cc1cc(-c2nc(N)c3nc(C(F)(F)F)cc(C)c3n2)ccc1N(C)C(=O)c1ccnn1C [Example 154, N-(4-(4-amino-8-methyl-6-(trifluoromethyl)pyrido[3,2-d]pyrimidin-2-yl)-2-methylphenyl)-N,1-dimethyl-1H-pyrazole-5-carboxamide]"
3,< 200 nM,"Cc1cc(-c2nc(N)c3nc(C(F)(F)F)cc(C)c3n2)ccc1NC(=O)c1ccnn1C [Example 153, N-(4-(4-amino-8-methyl-6-(trifluoromethyl)pyrido[3,2-d]pyrimidin-2-yl)-2-methylphenyl)-1-methyl-1H-pyrazole-5-carboxamide]"
4,< 200 nM,"Cc1cc(-c2ncc3cc(C(F)(F)F)ccc3n2)ccc1N(C)C(=O)c1ccnn1CC(N)=O [Example 156, 1-(2-amino-2-oxoethyl)-N-methyl-N-(2-methyl-4-(6-(trifluoromethyl)quinazolin-2-yl)phenyl)-1H-pyrazole-5-carboxamide]"
5,< 200 nM,"Cc1cc(-c2ccc3cc(C(F)(F)F)ccc3n2)ccc1N(C)C(=O)c1ccnn1CCO [Example 209, 1-(2-hydroxyethyl)-N-methyl-N-(2-methyl-4-(6-(trifluoromethyl)quinolin-2-yl)phenyl)-1H-pyrazole-5-carboxamide]"
6,1000 to 10000 nM,"Cc1cc(C(F)(F)F)nc2cnc(-c3ccc(NC(=O)C4CCOCC4)c(F)c3)nc12 [Example 186, N-(2-fluoro-4-(8-methyl-6-(trifluoromethyl)pyrido[3,2-d]pyrimidin-2-yl)phenyl)tetrahydro-2H-pyran-4-carboxamide]"
7,< 200 nM,"Cc1cc(-c2ncc3cc(C(F)(F)F)ccc3n2)ccc1N(C)C(=O)c1ccnc(C(N)=O)c1 [Example 152, N4-methyl-N4-(2-methyl-4-(6-(trifluoromethyl)quinazolin-2-yl)phenyl)pyridine-2,4-dicarboxamide]"
8,< 200 nM,"COc1cnccc1C(=O)Nc1ccc(-c2ncc3nc(C(F)(F)F)cc(C)c3n2)cc1C [Example 184, 3-methoxy-N-(2-methyl-4-(8-methyl-6-(trifluoromethyl)pyrido[3,2-d]pyrimidin-2-yl)phenyl)isonicotinamide]"
9,< 200 nM,"Cc1cc(-c2ncc3nc(C(F)(F)F)cc(C)c3n2)ccc1N(C)C(=O)c1ccnc(C(N)=O)c1 [Example 168, N4-methyl-N4-(2-methyl-4-(8-methyl-6-(trifluoromethyl)pyrido[3,2-d]pyrimidin-2-yl)phenyl)pyridine-2,4-dicarboxamide]"
10,1000 to 10000 nM,"Cc1cc(-c2ncc3cc(C(F)(F)F)ccc3n2)ccc1N(C)C(=O)c1ccnn1Cc1nnn[nH]1 [Example 158, 1-((1H-tetrazol-5-yl)methyl)-N-methyl-N-(2-methyl-4-(6-(trifluoromethyl)-quinazolin-2-yl)phenyl)-1H-pyrazole-5-carboxamide]"
11,1000 to 10000 nM,"Cc1c(-c2ncc3nc(C(F)(F)F)ccc3n2)ccc(N(C)C(=O)c2ccnn2C)c1C [Example 191, N-(2,3-dimethyl-4-(6-(trifluoromethyl)pyrido[3,2-d]pyrimidin-2-yl)phenyl)-N,1-dimethyl-1H-pyrazole-5-carboxamide]"
12,< 200 nM,"Cc1cc(-c2ccc3cc(C(F)(F)F)cc(C)c3n2)ccc1NC(=O)c1ccnn1C [Example 203, 1-methyl-N-(2-methyl-4-(8-methyl-6-(trifluoromethyl)quinolin-2-yl)phenyl)-1H-pyrazole-5-carboxamide]"
